According to patent US20080306094A1 (priority 2005, published 2008):
Read-outs that look alike come from different tables or passages of the source.

Legend:
HUVEC = HUVEC assay, endothelial cell proliferation; type: cell-based; details: Homo sapiens
Calu-6 tumour xenograft = Calu-6 tumour xenograft in vivo solid tumour model; details: once-daily oral, 28 days

COc1cc2c(Oc3ccc4[nH]c(C)cc4c3F)ncnc2cc1OCCCN1CCCC1 [AZD2171, 4-(4-fluoro-2-methyl-1H-indol-5-yloxy)-6-methoxy-7-(3-(pyrrolidin-1-yl)propoxy)quinazoline]
IC50 (HUVEC; VEGF-stimulated, read-out: IC50, VEGF-stimulated endothelial cell proliferation): 0.4 ± 0.2 nM
IC50 (HUVEC; basal, read-out: IC50, basal endothelial cell proliferation): > 500 nM
inhibition of growth of Calu-6 tumour xenograft (Calu-6 tumour xenograft; 1.5 mg/kg/day, P<0.01 one-tailed t test): 49%
inhibition of growth of Calu-6 tumour xenograft (Calu-6 tumour xenograft; 3 mg/kg/day, P<0.0001 one-tailed t test): 69%
inhibition of growth of Calu-6 tumour xenograft (Calu-6 tumour xenograft; 6 mg/kg/day, P<0.0001 one-tailed t test): 91%
